Test results from US12116635B2, “Methods for detecting and treating cancers having adenosine pathway activation” (Corvus Pharmaceuticals, Inc., priority 2018, dated 2024).
“Also recorded” adds a separate entry of the source.

Experiments:
[1] = test system: human peripheral blood mononuclear cells (PBMCs); test: RNA sequencing (RNA-Seq) of NECA-treated PBMCs; format: cell-based
Protocol: RNA purified from normal, healthy human peripheral blood mononuclear cells (PBMCs) treated with 5′-N-ethylcarboxamidoadenosine (NECA) and activated with anti-CD3/CD28 antibody were analyzed by NanoString hybridization-based quantification (NanoString Technologies, Inc.). […] Each dot represents the expression level of a specific gene. Dot shade represents the concentration of NECA used and/or different PBMC donors. […] Data were confirmed by RNA sequencing (RNA-Seq).

PBMCs = test: CXCL5 protein ELISA in culture supernatants of PBMCs treated with NECA +/- CPI-444; format: cell-based, human
Protocol: Expression of CXCL5 was determined by ELISA 2 days after activation.
FIGS. 2B and 2C show the response of PBMCs from two different donors to NECA+/−CPI-444 treatment. DMSO was used as vehicle control. […] This control helps establish that the induction of CXCL5 is specific to signaling through adenosine receptors.
NECA activation of CXCL5 protein expression was evaluated. PBMCs were harvested from two different human donors. […] CPI-444 (Corvus Pharmaceuticals) is an antagonist of the adenosine A2A receptor. CXCL5 protein in the culture supernatants was evaluated by ELISA two days after activation. CXCL5 expression is activated by NECA. […] This establishes that the induction of CXCL5 is specific to signaling through adenosine receptors.

[2] = test system: human peripheral blood mononuclear cells (PBMCs); test: NanoString quantification of mRNA in NECA-treated, anti-CD3/CD28-activated PBMCs; format: cell-based; details: 0.1 μM, 1 μM, and/or 10 μM NECA vs vehicle-treated control
Protocol: RNA purified from normal, healthy human peripheral blood mononuclear cells (PBMCs) treated with 5′-N-ethylcarboxamidoadenosine (NECA) and activated with anti-CD3/CD28 antibody were analyzed by NanoString hybridization-based quantification (NanoString Technologies, Inc.). […] Each dot represents the expression level of a specific gene. Dot shade represents the concentration of NECA used and/or different PBMC donors.

advanced cancers = test: Ongoing phase 1/1b trial in patients with advanced cancers; format: in vivo, human; details: as a monotherapy and in combination with atezolizumab
Source text: “Adenosine receptor antagonist” refers to a molecule that inhibits activity of adenosine receptors (e.g. A2A or A2B receptors), typically through direct action. Adenosine receptors antagonists can be small or large molecule antagonists. In embodiments, CPI-444 is an example A2A receptor antagonist. […] CPI-444 is described, for example, in PCT Patent Publication No. WO 2017/112917; each of which is incorporated herein by reference in its entirety.

A2AR = test: In vitro A2AR stimulation gene signature +/- CPI-444 (transcript and protein); format: cell-based, human; details: at the transcript and protein level
Protocol: RNA purified from normal, healthy human peripheral blood mononuclear cells (PBMCs) treated with 5′-N-ethylcarboxamidoadenosine (NECA) and activated with anti-CD3/CD28 antibody were analyzed by NanoString hybridization-based quantification (NanoString Technologies, Inc.). […] Each dot represents the expression level of a specific gene. Dot shade represents the concentration of NECA used and/or different PBMC donors. […] Increases in monocyte/macrophage inflammatory mediators such as IL-1b and CCL2, 3, 7, 8, 20 were also observed, as were increases in SERPINB2, S100A8, PTGS2, THBS1. Expression of CXCL10 and GZMB were decreased, consistent with a suppressed IFNg response. […] A2AR agonists induce a specific gene signature (increase in a certain subset of genes and/or decrease in a second subset of genes) dominated by immunosuppressive mediators of MDSC and monocyte/macrophage biology. Inhibition of these genes by CPI-444 are observed. These gene signatures may be used as biomarkers for patient selection.

## CCNC(=O)[C@H]1O[C@@H](n2cnc3c(N)ncnc32)[C@H](O)[C@@H]1O [NECA, 5′-N-ethylcarboxamidoadenosine]
[1]; Control (DMSO) vs 0.1 μm NECA
  logFC CCL24: −1.068
  logFC CD93: 0.9975
  logFC CSF3: 1.603
  logFC CXCL2: 1.452
  logFC CXCL3: 1.694
  logFC CXCL5: 2.388
  logFC EHF: −0.2753
  logFC EML6: 0.2117
  logFC EPB41L3: 1.183
  logFC FUT7: −0.2135
  logFC HAS1: 2.059
  logFC IL23A: 0.7971
  logFC INHBA: 0.5196
  logFC KLC4: 0.216
  logFC LAYN: 0.4228
  logFC MRPL11: −0.19
  logFC MS4A7: 0.9319
  logFC NPR1: 0.7892
  logFC OST4: 0.2352
  logFC PADI2: 0.4802
  logFC PTGS2: 1.184
  logFC SLC7A7: 0.5935
  logFC SPON1: 0.3611
  logFC ST6GALNAC2: 0.5342
  logFC SYTL3: 0.2894
  logFC WDR83OS: −0.2872
  logFC ZBTB18: 0.2431
[1]; Control (DMSO) vs 1 μm NECA
  logFC CCDC60: 0.07658
  logFC CD93: 1.454
  logFC CSF3: 2.802
  logFC CXCL2: 2.361
  logFC CXCL3: 2.573
  logFC CXCL5: 3.451
  logFC EHF: −0.2522
  logFC EMR3: 1.364
  logFC EPB41L3: 1.854
  logFC EREG: 1.89
  logFC FUT7: −0.4158
  logFC GPR157: 0.9283
  logFC HAS1: 3.238
  logFC IL23A: 1.363
  logFC IL24: 2.876
  logFC INHBA: 0.9638
  logFC LAYN: 0.5277
  logFC MS4A7: 1.535
  logFC OST4: −0.1747
  logFC PADI2: 0.7173
  logFC PID1: 1.729
  logFC PTGS2: 2.23
  logFC SLC7A7: 0.9514
  logFC SPON1: 0.5667
  logFC ST6GALNAC2: 0.8306
  logFC TGIF1: 0.4769
  logFC ZBTB18: 0.3385
[1]; Control (DMSO) vs 10 μm NECA
  logFC CCNE1: −0.4518
  logFC CD93: 1.895
  logFC CD300E: 1.71
  logFC CSF3: 3.508
  logFC CXCL2: 3.011
  logFC CXCL3: 3.106
  logFC CXCL5: 3.354
  logFC DENA5: 0.6559
  logFC ECEL1: 0.6918
  logFC EPB41L3: 2
  logFC GALM: −0.3189
  logFC GBP6: −0.8039
  logFC GPR157: 1.139
  logFC HAS1: 3.807
  logFC IL5: −0.6885
  logFC IL23A: 1.332
  logFC INHBA: 1.192
  logFC LAP3: −0.4286
  logFC LOC100505585: 0.6639
  logFC NID1: 1.087
  logFC PADI2: 0.9386
  logFC PID1: 2.124
  logFC PTGS2: 2.349
  logFC RHCG: 0.5767
  logFC SLC7A7: 0.9134
  logFC SPON1: 0.568
  logFC ST6GALNAC2: 0.876
PBMCs; PBMCs from two human donors, anti-CD3/CD28 activated, two days after activation, vs DMSO
  CXCL5 protein in the culture supernatants (ELISA): activated; also recorded: dose-dependent increase in CXCL5
[2]
  logFC CD14: 0.4485
  logFC CD86: 0.3148
  logFC CLEC5A: 0.3833
  logFC CXCL1: 0.6909
  logFC CXCL2: 1.093
  logFC CXCL3: 1.101
  logFC CXCL5: 1.338
  logFC CXCL6: 0.6535
  logFC IL1A: 0.6367
  logFC IL1B: 0.6345
  logFC IL6: 0.7014
  logFC IL8: 0.6411
  logFC IL23A: 0.4628
  logFC IL24: 0.5768
  logFC PLAUR: 0.5031
  logFC PPBP: 0.683
  logFC PTGS2: 0.6892
  logFC SLC11A1: 0.7022
  logFC TBX21: −0.1238
  logFC THBS1: 0.8703

## Cc1ccc(-c2nc(N)nc3c2nnn3Cc2cccc(CO[C@H]3CCOC3)n2)o1 [CPI-444, (S)-7-(5-methylfuran-2-yl)-3-((6-(((tetrahydrofuran-3-yl)oxy)methyl)pyridin-2-yl)methyl)-3H-[1,2,3]triazolo[4,5-d]pyrimidin-5-amine]
PBMCs; PBMCs treated with NECA, followed by CPI-444, then anti-CD3/CD28, ELISA two days after activation
  Blocking of NECA-induced CXCL5 protein expression: can be blocked
Advanced cancers
  anti-tumor activity: demonstrated anti-tumor activity
A2AR
  Inhibition of A2AR-stimulation-induced gene expression changes: inhibited these changes
